In patent US10759766B2, “Certain chemical entities, compositions, and methods” (NeuPharma, Inc., priority 2011, dated 2020):

Key:
BRAF = BRAF (Homo sapiens (Human), UniProt P15056); assay: Z′-LYTE kinase inhibition assay (Invitrogen), BRAF; format: biochemical; settings: 1 μM compound, Z′-LYTE method; for inhibition at 1 µM: read-out: % inhibition at 1 μM against BRAF
Experimental: Inhibitory activities Inhibitory activities of compounds against BRAF, and BRAF V600E were measured by Invitrogen using Z′-LYTE® Method as briefly described in the following. 4× Test compounds are dissolved in 1% DMSO. […] ATP solutions are diluted to a 4×ATP working concentration in Kinase Buffer (50 mM HEPES pH 7.5, 0.01% BRIJ-35, 10 mM MgCl2, 1 mM EGTA). Reaction started by 30-second shaking of mixture consisting of 2.5 μL 4× test compound, […] and 2.5 μL 4×ATP Solution on Bar-coded Corning, low volume NBS, black 384-well plate (Corning Cat. #3676). Then the mixture was incubated for 60-minute at room temperature for the kinase reaction, followed by addition of 5 μL of a 1:1024 dilution of development reagent A and 30-second plate shake. The mixture was then incubated for another 60-minute at room temperature for development reaction. Fluorescence was read by plate reader. IC50 was calculated by plotting the concentration of compound vs the percentage of inhibition in treated wells using GraphPad Prism 5.

A375 cells = assay: Inhibition of cancer cell growth, MTT assay, A375; format: cell-based
Outline: (§1)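 IC50 derived from percent growth inhibition versus concentration, tested in triplicate. Growth inhibition came from MTT read at 570 nm after 72 h drug exposure, relative to viable cells at dosing. Cells (about 4000/well, RPMI 1640 + 10% FBS) adhered 24 h before treatment; final DMSO 1%.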

BRAF V600E = BRAF V600E (Homo sapiens (Human), UniProt P15056, V600E); assay: Z′-LYTE kinase inhibition assay (Invitrogen), BRAF V600E; format: biochemical; settings: Z′-LYTE method; for inhibition at 1 µM: read-out: % inhibition at 1 μM against BRAF V600E; for IC50: read-out: IC50 against BRAF V600E
BRAF V600E, sequence (P15056 whole entry V600E): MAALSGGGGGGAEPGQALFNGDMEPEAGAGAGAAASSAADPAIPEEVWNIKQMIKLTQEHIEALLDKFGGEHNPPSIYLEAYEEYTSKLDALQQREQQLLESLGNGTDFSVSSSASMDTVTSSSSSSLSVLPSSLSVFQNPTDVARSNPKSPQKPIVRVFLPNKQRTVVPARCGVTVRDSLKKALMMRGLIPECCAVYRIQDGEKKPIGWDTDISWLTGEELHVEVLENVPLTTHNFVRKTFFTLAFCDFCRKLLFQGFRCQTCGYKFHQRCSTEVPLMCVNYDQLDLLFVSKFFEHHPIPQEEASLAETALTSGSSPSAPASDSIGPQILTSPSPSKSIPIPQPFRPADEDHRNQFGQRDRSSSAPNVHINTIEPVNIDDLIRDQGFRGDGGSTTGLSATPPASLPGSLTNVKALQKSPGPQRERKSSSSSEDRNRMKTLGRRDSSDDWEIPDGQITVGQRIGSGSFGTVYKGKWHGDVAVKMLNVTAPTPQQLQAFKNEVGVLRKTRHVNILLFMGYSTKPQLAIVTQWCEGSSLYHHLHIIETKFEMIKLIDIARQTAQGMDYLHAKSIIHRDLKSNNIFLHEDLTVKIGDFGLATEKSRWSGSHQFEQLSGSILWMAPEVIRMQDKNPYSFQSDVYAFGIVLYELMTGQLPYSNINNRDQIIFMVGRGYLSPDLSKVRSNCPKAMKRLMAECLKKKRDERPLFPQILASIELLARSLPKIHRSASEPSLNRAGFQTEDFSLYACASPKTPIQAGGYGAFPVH
Outline: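 FRET-based Z′-LYTE peptide phosphorylation format in 50 mM HEPES pH 7.5, 0.01% BRIJ-35, 10 mM MgCl2, 1 mM EGTA with ATP. Kinase reaction 60 min at room temperature, then protease development step 60 min at room temperature before fluorescence read. IC50 from compound concentration versus percent inhibition.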

KDR (VEGFR2) = KDR (VEGFR2) (Homo sapiens (Human), UniProt P35968); assay: Z′-LYTE kinase inhibition assay (Invitrogen), KDR; format: biochemical; settings: Z′-LYTE method; for inhibition at 1 µM: read-out: % inhibition at 1 μM against KDR; for IC50: read-out: IC50 against KDR
KDR (VEGFR2), sequence (P35968 20-1356): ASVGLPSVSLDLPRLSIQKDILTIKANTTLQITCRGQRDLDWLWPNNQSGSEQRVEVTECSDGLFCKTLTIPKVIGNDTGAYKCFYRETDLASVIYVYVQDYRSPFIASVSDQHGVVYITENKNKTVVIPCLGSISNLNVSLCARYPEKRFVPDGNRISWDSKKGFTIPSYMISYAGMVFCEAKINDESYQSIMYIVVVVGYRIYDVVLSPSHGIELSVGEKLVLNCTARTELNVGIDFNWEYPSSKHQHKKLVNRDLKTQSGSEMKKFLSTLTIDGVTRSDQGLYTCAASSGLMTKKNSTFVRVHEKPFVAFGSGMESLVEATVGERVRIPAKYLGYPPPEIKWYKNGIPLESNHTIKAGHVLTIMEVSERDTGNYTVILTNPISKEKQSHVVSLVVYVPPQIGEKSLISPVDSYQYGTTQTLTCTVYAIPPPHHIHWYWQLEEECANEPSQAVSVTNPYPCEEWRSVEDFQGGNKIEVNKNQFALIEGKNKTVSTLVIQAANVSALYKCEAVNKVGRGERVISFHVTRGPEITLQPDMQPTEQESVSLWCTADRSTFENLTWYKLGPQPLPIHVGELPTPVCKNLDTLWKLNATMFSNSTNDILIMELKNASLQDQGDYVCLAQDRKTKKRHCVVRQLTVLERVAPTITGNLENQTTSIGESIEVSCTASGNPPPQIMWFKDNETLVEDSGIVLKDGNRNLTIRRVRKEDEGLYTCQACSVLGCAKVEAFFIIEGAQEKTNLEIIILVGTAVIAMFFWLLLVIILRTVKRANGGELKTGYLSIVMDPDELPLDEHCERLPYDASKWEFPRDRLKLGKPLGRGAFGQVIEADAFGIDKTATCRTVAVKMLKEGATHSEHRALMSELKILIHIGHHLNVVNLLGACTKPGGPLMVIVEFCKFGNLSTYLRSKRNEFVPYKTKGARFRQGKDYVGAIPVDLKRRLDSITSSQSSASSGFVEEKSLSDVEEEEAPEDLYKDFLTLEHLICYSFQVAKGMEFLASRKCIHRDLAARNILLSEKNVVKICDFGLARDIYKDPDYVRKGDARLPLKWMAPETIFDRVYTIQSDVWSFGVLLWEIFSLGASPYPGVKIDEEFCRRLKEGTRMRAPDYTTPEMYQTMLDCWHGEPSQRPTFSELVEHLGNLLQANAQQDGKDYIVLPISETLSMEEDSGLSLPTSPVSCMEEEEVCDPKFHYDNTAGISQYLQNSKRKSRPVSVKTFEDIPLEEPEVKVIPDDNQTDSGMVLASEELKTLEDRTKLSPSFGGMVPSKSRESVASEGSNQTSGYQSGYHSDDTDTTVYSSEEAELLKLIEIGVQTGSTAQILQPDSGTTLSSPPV
Outline: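 Z′-LYTE FRET assay: 10 μL reactions with 0.5–11.7 ng KDR and 2 μM Tyr 01 peptide in 50 mM HEPES pH 7.5, 10 mM MgCl2, 1 mM EGTA, 0.01% BRIJ-35, 1 h at room temperature. Development Reagent B (1:256) added for 60 min, fluorescence read; IC50 from concentration–inhibition curves.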

A549 cells = assay: Inhibition of cancer cell growth, MTT assay, A549; format: cell-based
Outline: as §1

[1] = Homo sapiens, A-375, 72 h exposure
[2] = Homo sapiens, A549, 72 h exposure

BRAF, sequence (P15056 whole entry): as the sequence (P15056 whole entry V600E) above, with E600V counted along it

inhibition at 1 µM (BRAF) [%]	IC50 (A375 cells; [1]) [µM]	inhibition at 1 µM (BRAF V600E; 1 μM compound) [%]	IC50 (BRAF V600E) [µM]	inhibition at 1 µM (KDR (VEGFR2); 1 μM compound) [%]	IC50 (KDR (VEGFR2)) [µM]	IC50 (A549 cells; [2]) [µM]	% inhibition at 1 μM against BRAF (BRAF)	IC50 (A375 cells; 72 h exposure) [µM]	% inhibition at 1 μM against BRAF V600E (BRAF V600E; 1 μM compound)	% inhibition at 1 μM against KDR (KDR (VEGFR2); 1 μM compound)	IC50 (A549 cells; 72 h exposure) [µM]	Compound
< 70	< 1	70 to 89	< 0.1	> 89	< 0.1	< 2	–	–	–	–	–	O=C(Nc1cccc(C(F)(F)F)c1)Nc1ccc(F)c(C(=O)c2ccc3ncc(N4CCOCC4)nc3c2)c1 [Compound C036, 1-(4-fluoro-3-(3-morpholinoquinoxaline-6-carbonyl)phenyl)-3-(3-(trifluoromethyl)phenyl)urea]
< 70	< 1	70 to 89	> 0.1	> 89	< 0.1	2 to 5	–	–	–	–	–	O=C(Nc1cc(F)c(F)c(C(=O)c2ccc3ncc(N4CCOCC4)nc3c2)c1)c1ccc(Cl)c(C(F)(F)F)c1 [Compound C146, 4-chloro-N-(3,4-difluoro-5-(3-morpholinoquinoxaline-6-carbonyl)phenyl)-3-(trifluoromethyl)benzamide]
–	–	–	–	–	–	–	+ (less than 70% inhibition)	> 5	++ (between 70% and 89% inhibition)	+ (less than 70% inhibition)	> 5	1-(fluorophenyl)-3-(2,4,5-trifluoro-3-(quinoxaline-6-carbonyl)phenyl)urea [Compound C005]
> 89	< 1	> 89	–	> 89	–	< 2	–	–	–	–	–	O=C(Nc1cccc(C(F)(F)F)c1)Nc1ccc(F)c(C(=O)c2ccc3ncc(N4CCNCC4)nc3c2)c1 [Compound C085, 1-(4-fluoro-3-(3-(piperazin-1-yl)quinoxaline-6-carbonyl)phenyl)-3-(3-(trifluoromethyl)phenyl)urea]
70 to 89	> 5	70 to 89	–	< 70	–	2 to 5	–	–	–	–	–	O=C(Nc1cccc(C(=O)c2ccc3nccnc3c2)c1)c1cccc(C(F)(F)F)c1 [Compound C110, N-(3-(quinoxaline-6-carbonyl)phenyl)-3-(trifluoromethyl)benzamide]
< 70	1 to 5	< 70	–	< 70	–	2 to 5	–	–	–	–	–	O=C(Nc1ccc(Cl)c(C(F)(F)F)c1)Nc1cc(F)c(F)c(C(=O)c2ccc3nccnc3c2)c1F [Compound C007, 1-(4-chloro-3-(trifluoromethyl)phenyl)-3-(2,4,5-trifluoro-3-(quinoxaline-6-carbonyl)phenyl)urea]
< 70	< 1	> 89	< 0.1	70 to 89	< 0.1	2 to 5	–	–	–	–	–	O=C(Nc1cc(F)cc(C(=O)c2ccc3ncc(N4CCOCC4)nc3c2)c1)c1cccc(C(F)(F)F)c1 [Compound C143, N-(3-fluoro-5-(3-morpholinoquinoxaline-6-carbonyl)phenyl)-3-(trifluoromethyl)benzamide]
70 to 89	< 1	> 89	–	> 89	–	2 to 5	–	–	–	–	–	O=C(Nc1ccc(F)c(C(=O)c2ccc3nccnc3c2)c1)c1cccc(C(F)(F)F)c1 [Compound C116, N-(4-fluoro-3-(quinoxaline-6-carbonyl)phenyl)-3-(trifluoromethyl)benzamide]
< 70	1 to 5	> 89	–	70 to 89	–	2 to 5	–	–	–	–	–	COc1cnc2ccc(C(=O)c3cc(NC(=O)Nc4ccc(F)c(F)c4)ccc3F)cc2n1 [Compound C082, 1-(3,4-difluorophenyl)-3-(4-fluoro-3-(3-methoxyquinoxaline-6-carbonyl)phenyl)urea]
< 70	< 1	> 89	< 0.1	> 89	< 0.1	> 5	–	–	–	–	–	O=C(Nc1cc(F)c(F)c(C(=O)c2ccc3ncc(N4CCOCC4)nc3c2)c1)c1cccc(C(F)(F)F)c1 [Compound C145, N-(3,4-difluoro-5-(3-morpholinoquinoxaline-6-carbonyl)phenyl)-3-(trifluoromethyl)benzamide]
> 89	< 1	> 89	–	70 to 89	–	> 5	–	–	–	–	–	O=C(Nc1ccnc(C(F)(F)F)c1)Nc1ccc(F)c(C(=O)c2ccc3ncc(N4CCOCC4)nc3c2)c1 [Compound C090, 1-(4-fluoro-3-(3-morpholinoquinoxaline-6-carbonyl)phenyl)-3-(2-(trifluoromethyl)pyridin-4-yl)urea]
> 89	< 1	> 89	–	> 89	–	2 to 5	–	–	–	–	–	O=C(Nc1ccc(F)c(F)c1)Nc1ccc(F)c(C(=O)c2ccc3ncc(NCCO)nc3c2)c1 [Compound C087, 1-(3,4-difluorophenyl)-3-(4-fluoro-3-(3-((2-hydroxyethyl)amino)quinoxaline-6-carbonyl)phenyl)urea]
< 70	< 1	70 to 89	–	70 to 89	–	< 2	–	–	–	–	–	O=C(Nc1cc(F)c(F)c(C(=O)c2ccc3nccnc3c2)c1)Nc1ccc(Cl)c(C(F)(F)F)c1 [Compound C023, 1-(4-chloro-3-(trifluoromethyl)phenyl)-3-(3,4-difluoro-5-(quinoxaline-6-carbonyl)phenyl)urea]
< 70	< 1	> 89	–	70 to 89	–	> 5	–	–	–	–	–	O=C(Nc1cccc(C(=O)c2ccc3ncc(-n4ccnc4)nc3c2)c1)c1ccc(Cl)c(C(F)(F)F)c1 [Compound C132, N-(3-(3-(1H-imidazol-1-yl)quinoxaline-6-carbonyl)phenyl)-4-chloro-3-(trifluoromethyl)benzamide]
< 70	< 1	70 to 89	> 0.1	> 89	< 0.1	2 to 5	–	–	–	–	–	O=C(Nc1ccc(F)c(C(=O)c2ccc3ncc(N4CCOCC4)nc3c2)c1)Nc1ccc(Cl)c(C(F)(F)F)c1 [Compound C030, 1-(4-chloro-3-(trifluoromethyl)phenyl)-3-(4-fluoro-3-(3-morpholinoquinoxaline-6-carbonyl)phenyl)urea]
< 70	< 1	70 to 89	> 0.1	70 to 89	> 0.1	< 2	–	–	–	–	–	O=C(Nc1cccc(C(F)(F)F)c1)Nc1cc(F)c(F)c(C(=O)c2ccc3ncc(N4CCOCC4)nc3c2)c1 [Compound C040, 1-(3,4-difluoro-5-(3-morpholinoquinoxaline-6-carbonyl)phenyl)-3-(3-(trifluoromethyl)phenyl)urea]
< 70	< 1	> 89	< 0.1	> 89	< 0.1	< 2	–	–	–	–	–	O=C(Nc1ccc(F)c(C(=O)c2ccc3nccnc3c2)c1)Nc1ccc(Cl)c(C(F)(F)F)c1 [Compound C015, 1-(4-chloro-3-(trifluoromethyl)phenyl)-3-(4-fluoro-3-(quinoxaline-6-carbonyl)phenyl)urea]
< 70	> 5	< 70	–	< 70	–	2 to 5	–	–	–	–	–	O=C(Nc1ccc(Cl)c(C(F)(F)F)c1)Nc1ccc(F)c(C(=O)c2ccc3nccnc3c2)c1Cl [Compound C008, 1-(4-chloro-3-(trifluoromethyl)phenyl)-3-(2-chloro-4-fluoro-3-(quinoxaline-6-carbonyl)phenyl)urea]
< 70	1 to 5	70 to 89	–	< 70	–	< 2	–	–	–	–	–	O=C(Nc1cccc(C(=O)c2ccc3nccnc3c2)c1)c1cccc(F)c1 [Compound C105, 3-fluoro-N-(3-(quinoxaline-6-carbonyl)phenyl)benzamide]
